Here are results for 15 compounds from article PMC9086926 (RSC Advances, 2018).

A short description of series [1]: Absorptive permeability across traditional 21 day Caco-2 cell model. Particulars: human. A general note: Passage across Caco-2 layers is used to estimate intestinal permeability.
Series [2] can be described thus: Absorptive permeability across 7 day fast model. Particulars: human, Caco-2.
The conditions of series [3]: cited from earlier work.

In series [1], `CCOC(=O)C1=C(C)NC(C)=C(C(=O)OC)C1c1cccc(Cl)c1Cl` (stereo not shown) [Felodipine] yielded a Papp A→B at 25 μM of 4.34 ± 0.63 ×10⁻⁶ cm/s.
In the case of `COCCc1ccc(OCC(O)CNC(C)C)cc1` (stereo not shown) [Metoprolol], the results for the Papp A→B at 25 μM in series [2] and in series [1] were 11.8 ± 0.25 ×10⁻⁶ cm/s and 12.1 ± 0.39 ×10⁻⁶ cm/s, respectively.
On to `CC(NC(C)(C)C)C(=O)c1cccc(Cl)c1` (stereo not shown) [Bupropion], for which the results for the Papp A→B at 25 μM in series [2] and in series [1] were 12.9 ± 0.48 ×10⁻⁶ cm/s and 16.6 ± 0.99 ×10⁻⁶ cm/s, respectively.
`NC(=O)N1c2ccccc2C=Cc2ccccc21` [Carbamazepine]: the Papp A→B at 25 μM stood at 19.5 ± 0.87 ×10⁻⁶ cm/s in series [2] and 20.9 ± 1.93 ×10⁻⁶ cm/s in series [1]. Also, in series [3], the “FA (human absorption fraction)” value is listed as 100%.
Regarding `CC(=O)CC(c1ccccc1)c1c(O)c2ccccc2oc1=O` (stereo not shown) [Warfarin sodium], the Papp A→B at 25 μM stood at 14.44 ± 0.11 ×10⁻⁶ cm/s in series [2] and 15.31 ± 0.002 ×10⁻⁶ cm/s in series [1].
`Nc1ccc(S(=O)(=O)Nc2ncccn2)cc1` [Sulfadiazine]: in series [1], the Papp A→B at 25 μM turned out to be 9.76 ± 1.05 ×10⁻⁶ cm/s. Also, the “FA (human absorption fraction)” value in series [3] is recorded as 65%.
For the compound `COC(=O)[C@H]1[C@H]2C[C@@H]3c4[nH]c5cc(OC)ccc5c4CCN3C[C@H]2C[C@@H](OC(=O)c2cc(OC)c(OC)c(OC)c2)[C@@H]1OC` [Reserpine], the Papp A→B at 25 μM in series [2] worked out at 3.6 ± 0.43 ×10⁻⁶ cm/s; in series [1] it was 3.5 ± 0.69 ×10⁻⁶ cm/s. In addition, the “FA (human absorption fraction)” value in series [3] is recorded as 50%.
For the compound `COc1ccc2[nH]c([S+]([O-])Cc3ncc(C)c(OC)c3C)nc2c1` (stereo not shown) [Omeprazole], the Papp A→B at 25 μM in series [2] was determined as 11.4 ± 0.47 ×10⁻⁶ cm/s; in series [1], 12.6 ± 2.01 ×10⁻⁶ cm/s. In addition, the “FA (human absorption fraction)” value in series [3] is 80%.
With `CC(C)(C)NCC(O)c1cc(O)cc(O)c1` (stereo not shown) [Terbutaline], the figures for the Papp A→B at 25 μM in series [2] and in series [1] were 16.6 ± 0.7 ×10⁻⁶ cm/s and 15.6 ± 1.28 ×10⁻⁶ cm/s, respectively. In series [3], the “FA (human absorption fraction)” value is 73%.
For `CC(C)NCC(O)COc1cccc2ccccc12` (stereo not shown) [Propranolol], the Papp A→B at 25 μM came to 9.37 ± 0.03 ×10⁻⁶ cm/s in series [2] and 10.6 ± 1.66 ×10⁻⁶ cm/s in series [1].
The matching figures for `O=C(N[C@H](CO)[C@H](O)c1ccc([N+](=O)[O-])cc1)C(Cl)Cl` [Chloramphenicol]: 7.12 ± 0.04 ×10⁻⁶ cm/s and 8.17 ± 0.06 ×10⁻⁶ cm/s.
For `Nc1nnc(-c2cccc(Cl)c2Cl)c(N)n1` [Lamotrigine], the “FA (human absorption fraction)” value in series [3] is reported as 98%.
Consider `CC(=O)N1CCN(c2ccc(OCC3COC(Cn4ccnc4)(c4ccc(Cl)cc4Cl)O3)cc2)CC1` (stereo not shown) [Ketoconazole], for which the figures for the Papp A→B at 25 μM in series [2] and in series [1] were 8.33 ± 0.93 ×10⁻⁶ cm/s and 9.61 ± 0.01 ×10⁻⁶ cm/s, respectively. The “FA (human absorption fraction)” value in series [3] was 76%.
In the case of `CCc1cc(C(N)=S)ccn1` [Ethionamide], the Papp A→B at 25 μM in series [2] was 20.4 ± 5.5 ×10⁻⁶ cm/s; in series [1], 23.8 ± 0.94 ×10⁻⁶ cm/s. Besides, the “FA (human absorption fraction)” value in series [3] is 80%.
In the case of `CC(C(=O)O)c1cccc(C(=O)c2ccccc2)c1` (stereo not shown) [Ketoprofen], the results for the Papp A→B at 25 μM in series [2] and in series [1] were 15 ± 1.97 ×10⁻⁶ cm/s and 19.2 ± 1.93 ×10⁻⁶ cm/s, respectively.

Usually Papp A→B stands for how fast a substance crosses the layer from the apical side.
